Measurements from US10184933B2, “Compositions, systems and methods for gene expression noise drug screening and uses thereof” (priority 2013, dated 2019).
Structures can show the parent of a compound that is named as a salt. Where two headings read alike, the source gives them in different places.

Legend:
[1] = tested on: latent HIV-1 in JLat 8.6 cells; format: cell-based
[2] = tested on: HIV-1 LTR promoter; format: cell-based; details: for identified as variability suppressor (VS) in noise screen: FIG. 12
[3] = Pharmakon 1600 library, 10 uM, 24 hours, FIG. 10
[4] = Pharmakon 1600 library, 10 uM, 24 hours

COc1ccc(CCN(C)CCCC(C#N)(c2ccc(OC)c(OC)c2)C(C)C)cc1OC (racemic) [V24, (±)-Verapamil hydrochloride]
synergy in reactivation of HIV-1 latency [1]: synergized

CC(C)NCC(O)c1ccc(O)c(O)c1.Cl (racemic) [V86, (±)-Isoproterenol hydrochloride]
identified as variability enhancer (VE) in noise screen [2]: variability enhancers
synergy in reactivation of HIV-1 latency [1]: synergized

C=CCC1(C(C)CCC)C(=O)N=C(S)NC1=O (centres unmarked) [V8, thiamylal sodium]
identified as variability enhancer (VE) in noise screen [2, 3]: variability enhancers
synergy in reactivation of HIV-1 latency [1]: synergized

NNc1nncc2ccccc12 [V17, hydralazine hydrochloride]
identified as variability enhancer (VE) in noise screen [2]: variability enhancers
synergy in reactivation of HIV-1 latency [1]: synergized

COc1ccc2c(c1)c(CC(=O)O)c(C)n2C(=O)c1ccc(Cl)cc1 [V18, Indomethacin]
identified as variability enhancer (VE) in noise screen [2, 3]: variability enhancers
synergy in reactivation of HIV-1 latency [1]: synergized

CC(C)c1c(C(=O)Nc2ccccc2)c(-c2ccccc2)c(-c2ccc(F)cc2)n1CC[C@@H](O)C[C@@H](O)CC(=O)[O-].CC(C)c1c(C(=O)Nc2ccccc2)c(-c2ccccc2)c(-c2ccc(F)cc2)n1CC[C@@H](O)C[C@@H](O)CC(=O)[O-].[Ca+2] [V20, atorvastatin calcium]
identified as variability enhancer (VE) in noise screen [2]: variability enhancers
synergy in reactivation of HIV-1 latency [1]: synergized

CC(C)(CO)[C@@H](O)C(=O)NCCC(=O)[O-].[Na+] [V22, pantothenic acid(d) na salt]
identified as variability enhancer (VE) in noise screen [2]: variability enhancers
synergy in reactivation of HIV-1 latency [1]: synergized

NCCc1cc(O)c(O)cc1O [V25, oxidopamine hydrochloride]
identified as variability enhancer (VE) in noise screen [2, 3]: variability enhancers
synergy in reactivation of HIV-1 latency [1]: synergized

C[C@]12CC[C@H]3[C@@H](CC[C@@]45O[C@@H]4C(O)=C(C#N)C[C@]35C)[C@@H]1CC[C@@H]2O [V26, trilostane]
identified as variability enhancer (VE) in noise screen [2, 3]: variability enhancers
synergy in reactivation of HIV-1 latency [1]: synergized

Cc1cn[nH]c1 [V27, fomepizole hydrochloride]
identified as variability enhancer (VE) in noise screen [2, 3]: variability enhancers
synergy in reactivation of HIV-1 latency [1]: synergized

NC(=O)C[S+]([O-])C(c1ccccc1)c1ccccc1 (centres unmarked) [V28, modafinil]
identified as variability enhancer (VE) in noise screen [2, 3]: variability enhancers
synergy in reactivation of HIV-1 latency [1]: synergized

Cc1cccc(C)c1N=C1NCCCS1 [V29, Xylazine hydrochloride]
identified as variability enhancer (VE) in noise screen [2, 3]: variability enhancers
synergy in reactivation of HIV-1 latency [1]: synergized

O=C(Nc1ccccc1)OCC(CN1CCCCC1)OC(=O)Nc1ccccc1 (centres unmarked) [V30, diperodon hydrochloride]
identified as variability enhancer (VE) in noise screen [2, 3]: variability enhancers
synergy in reactivation of HIV-1 latency [1]: synergized

Cc1cc(CC(=O)O)n(C)c1C(=O)c1ccc(Cl)cc1 [V31, zomepirac sodium]
identified as variability enhancer (VE) in noise screen [2, 3]: variability enhancers
synergy in reactivation of HIV-1 latency [1]: synergized

c1ccc2[nH]c(-c3cscn3)nc2c1 [V33, thiabendazole]
identified as variability enhancer (VE) in noise screen [2, 3]: variability enhancers
synergy in reactivation of HIV-1 latency [1]: synergized

Cc1cc(C(C#N)c2ccc(Cl)cc2)c(Cl)cc1NC(=O)c1cc(I)cc(I)c1O (centres unmarked) [V34, closantel]
identified as variability enhancer (VE) in noise screen [2, 3]: variability enhancers
synergy in reactivation of HIV-1 latency [1]: synergized

COc1ccc(-c2ccc3cc(C(=O)O)ccc3c2)cc1C12CC3CC(CC(C3)C1)C2 [V36, adapalene]
identified as variability enhancer (VE) in noise screen [2, 3]: variability enhancers
synergy in reactivation of HIV-1 latency [1]: synergized

CC(C)(C)NC(=O)[C@H]1CC[C@H]2[C@@H]3CC[C@H]4NC(=O)C=C[C@]4(C)[C@H]3CC[C@]12C [V37, finasteride]
identified as variability enhancer (VE) in noise screen [2, 3]: variability enhancers
synergy in reactivation of HIV-1 latency [1]: synergized

CCN(CC)CCNC(=O)c1ccc(N)cc1 [V38, Procainamide hydrochloride]
identified as variability enhancer (VE) in noise screen [2, 3]: variability enhancers
synergy in reactivation of HIV-1 latency [1]: synergized

CC1=C(C(=O)O)N2C(=O)[C@@H](NC(=O)[C@H](N)c3ccc(O)cc3)[C@H]2SC1 [V40, cefadroxil]
identified as variability enhancer (VE) in noise screen [2, 3]: variability enhancers
synergy in reactivation of HIV-1 latency [1]: synergized

COc1cnc(NS(=O)(=O)c2ccc(N)cc2)nc1 [V41, sulfameter]
identified as variability enhancer (VE) in noise screen [2, 3]: variability enhancers
synergy in reactivation of HIV-1 latency [1]: synergized

Nc1ccc(S(=O)(=O)Nc2cnc3ccccc3n2)cc1 [V42, sulfaquinoxaline sodium]
identified as variability enhancer (VE) in noise screen [2, 3]: variability enhancers
synergy in reactivation of HIV-1 latency [1]: synergized

CC[C@H]1OC(=O)[C@H](C)[C@@H](O[C@H]2C[C@@](C)(OC)[C@@H](O)[C@H](C)O2)[C@H](C)[C@@H](O[C@@H]2O[C@H](C)C[C@H](N(C)C)[C@H]2O)[C@](C)(O)C[C@@H](C)CN(C)[C@H](C)[C@@H](O)[C@]1(C)O [V43, azithromycin]
identified as variability enhancer (VE) in noise screen [2, 3]: variability enhancers
synergy in reactivation of HIV-1 latency [1]: synergized

CO[C@@]1(NC(=O)Cc2cccs2)C(=O)N2C(C(=O)O)=C(COC(N)=O)CS[C@@H]21 [V46, cefoxitin sodium]
identified as variability enhancer (VE) in noise screen [2, 3]: variability enhancers
synergy in reactivation of HIV-1 latency [1]: synergized

CN1CCCN=C1COC(=O)C(O)(c1ccccc1)C1CCCCC1 (centres unmarked) [V47, oxyphencyclimine hydrochloride]
identified as variability enhancer (VE) in noise screen [2, 3]: variability enhancers
synergy in reactivation of HIV-1 latency [1]: synergized

CCN(CC)CC#CCOC(=O)C(O)(c1ccccc1)C1CCCCC1 (centres unmarked) [V48, oxybutynin chloride]
identified as variability enhancer (VE) in noise screen [2]: variability enhancers
synergy in reactivation of HIV-1 latency [1]: synergized

C[N+]12CCC(CC1)C(OC(=O)C(O)(c1ccccc1)c1ccccc1)C2 (centres unmarked) [V49, clidinium bromide]
identified as variability enhancer (VE) in noise screen [2, 3]: variability enhancers
synergy in reactivation of HIV-1 latency [1]: synergized

CNCCC(Oc1ccc(C(F)(F)F)cc1)c1ccccc1 (centres unmarked) [V50, Fluoxetine hydrochloride]
identified as variability enhancer (VE) in noise screen [2]: variability enhancers
synergy in reactivation of HIV-1 latency [1]: synergized

Cc1ccc(S(=O)(=O)NC(=O)NN2CCCCCC2)cc1 [V51, Tolazamide]
identified as variability enhancer (VE) in noise screen [2, 3]: variability enhancers
synergy in reactivation of HIV-1 latency [1]: synergized

COc1cc(C(=O)NCc2ccc(OCCN(C)C)cc2)cc(OC)c1OC [V52, trimethobenzamide hydrochloride]
identified as variability enhancer (VE) in noise screen [2, 3]: variability enhancers
synergy in reactivation of HIV-1 latency [1]: synergized

CCN(CC)CCNC(=O)c1cc(Cl)c(N)cc1OC [V53, Metoclopramide hydrochloride]
identified as variability enhancer (VE) in noise screen [2, 3]: variability enhancers
synergy in reactivation of HIV-1 latency [1]: synergized

Cc1cccc(N(C)C(=S)Oc2ccc3ccccc3c2)c1 [V54, tolnaftate]
identified as variability enhancer (VE) in noise screen [2, 3]: variability enhancers
synergy in reactivation of HIV-1 latency [1]: synergized

CN(C)CCC(c1ccc(Cl)cc1)c1ccccn1 (centres unmarked) [V58, chlorpheniramine maleate]
identified as variability enhancer (VE) in noise screen [2]: variability enhancers
synergy in reactivation of HIV-1 latency [1]: synergized

O=C(O)CCCc1ccccc1 [V59, phenylbutyric acid]
identified as variability enhancer (VE) in noise screen [2]: variability enhancers
synergy in reactivation of HIV-1 latency [1]: synergized

C#CCN(C)Cc1ccccc1 [V61, Pargyline hydrochloride]
identified as variability enhancer (VE) in noise screen [2, 3]: variability enhancers
synergy in reactivation of HIV-1 latency [1]: synergized

CCCc1nc2c(C)cc(-c3nc4ccccc4n3C)cc2n1Cc1ccc(-c2ccccc2C(=O)O)cc1 [V62, telmisartan]
identified as variability enhancer (VE) in noise screen [2, 3]: variability enhancers
synergy in reactivation of HIV-1 latency [1]: synergized

CC[C@]1(O)C[C@H]2CN(CCc3c([nH]c4ccccc34)[C@@](C(=O)OC)(c3cc4c(cc3OC)N(C=O)[C@H]3[C@@](O)(C(=O)OC)[C@H](OC(C)=O)[C@]5(CC)C=CCN6CC[C@]43[C@@H]65)C2)C1 [vincristine sulfate]
identified as variability enhancer (VE) in noise screen [2, 3]: variability enhancers

CCC1=C[C@@H]2CN(C1)Cc1c([nH]c3ccccc13)[C@@](C(=O)OC)(c1cc3c(cc1OC)N(C)[C@H]1[C@@](O)(C(=O)OC)[C@H](OC(C)=O)[C@]4(CC)C=CCN5CC[C@]31[C@@H]54)C2 [vinorelbine]
identified as variability enhancer (VE) in noise screen [2, 3]: variability enhancers

Nc1ccn([C@H]2CC[C@@H](CO)O2)c(=O)n1 [zalcitabine]
identified as variability enhancer (VE) in noise screen [2, 3]: variability enhancers

arsenic trioxide
identified as variability suppressor (VS) in noise screen [2, 4]: variability suppressors

bleomycin [V66]
identified as variability enhancer (VE) in noise screen [2, 3]: variability enhancers

meclocycline sulfosalicylate
identified as variability suppressor (VS) in noise screen [2, 4]: variability suppressors
